Our source for the cell death values is patent US11590236B2, “Compositions and methods for altering macrophage phenotype” (priority 2019, dated 2023).

The test system of the data set is macrophages differentiated from human peripheral blood monocytes. In words: Cell death / viability of macrophages after drug exposure. Type of data set: cell-based. The conditions noted are these: all concentrations tested. On the procedure: As with Cu(II)-tilmanocept, MT1001.8 was evaluated using macrophages differentiated from human peripheral blood monocytes cultured in supplemented RPMI-1640 medium to which GM-CSF was added. The resulting macrophages were then exposed for 23 hours to MT1001.8 at different concentrations ranging from 0 (controls) to 6.68 μM. Free doxorubicin and the mannosylated dextran construct without the doxorubicin payload were also evaluated as controls. After the 23-hour exposure to the drug construct, the drug containing media were removed and replaced with fresh supplemented RPMI-1640 with GM-CSF and incubated for an additional 72 hours. This final 72-hour incubation in fresh medium was to permit the macrophages to recover from the drug treatment and to manifest any phenotype changes that might have been induced by exposure to the drug construct. All experiments were replicated 5-8 times with peripheral blood monocytes obtained from 5 separate donors. After the last 72-hour incubation, the media were collected and analyzed for their concentrations of various cytokines.

On to `COc1cccc2c1C(=O)c1c(O)c3c(c(O)c1C2=O)C[C@@](O)(C(=O)CO)C[C@@H]3O[C@H]1C[C@H](N)[C@H](O)[C@H](C)O1` [free doxorubicin, doxorubicin], for which the cell death result was “high levels of cell death”.
